{"source": "paper PMC9233675", "about": "“Ru(II) photocages enable precise control over enzyme activity with red light” (Nature Communications, 2022)", "key": {"CYP1A1": {"target": "T1, CYP1A1 (Homo sapiens, UniProt P04798)", "T1 sequence (P04798 1-512)": "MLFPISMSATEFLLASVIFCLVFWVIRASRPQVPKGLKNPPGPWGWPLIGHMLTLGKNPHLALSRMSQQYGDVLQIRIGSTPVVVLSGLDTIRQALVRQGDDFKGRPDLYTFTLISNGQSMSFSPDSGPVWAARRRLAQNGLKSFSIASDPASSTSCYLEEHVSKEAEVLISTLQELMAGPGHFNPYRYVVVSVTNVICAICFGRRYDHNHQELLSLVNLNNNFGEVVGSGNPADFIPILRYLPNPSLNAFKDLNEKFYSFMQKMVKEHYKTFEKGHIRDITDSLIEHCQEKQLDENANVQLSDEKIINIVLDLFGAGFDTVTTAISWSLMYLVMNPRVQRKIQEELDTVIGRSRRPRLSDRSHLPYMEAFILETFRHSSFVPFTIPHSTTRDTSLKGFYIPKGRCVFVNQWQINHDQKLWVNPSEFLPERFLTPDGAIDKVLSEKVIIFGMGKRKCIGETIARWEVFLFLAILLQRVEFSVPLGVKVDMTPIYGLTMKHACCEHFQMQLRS", "experiment": "In cell activity assay for CYP1A1 (7-ethoxyresorufin conversion, HEK293 T-Rex cells)", "details": "CYP1A1, dark"}, "[1]": {"experiment": "Cellular viability (resazurin to resorufin, 72 h)", "format": "cell-based, human", "details": "human, parental HEK293 T-Rex cells, HEK293 T-Rex, after 72 hrs", "method": "(§1) The cells were >70% viable at 72 h with 10 μM compound, as quantified by metabolically active cells determined by the conversion of resazurin to resorufin (Supplementary Figs. 18–20).\n(§2) The parental HEK T-Rex cell line was maintained as above, in the absence of Zeocin. Compounds were serially diluted in media, and the cells were dosed from 0–30 μM compound, and then incubated at 37 °C (n = 3). […] The cells were incubated with the compound in the dark for 30 min prior to light exposure, using the same parameters as in the enzyme activity assay, and then treated as above."}, "HEK293 T-Rex cell line": {"test_system": "HEK293 T-Rex cell line", "experiment": "Cellular viability (resazurin to resorufin, 72 h)", "format": "cell-based, human", "details": "HEK293 T-Rex, after 72 hrs", "method": "as §1, §2"}, "[2]": {"experiment": "Stability of compounds in rat liver microsomes"}, "CYP19A1": {"target": "T2, CYP19A1 (Homo sapiens, UniProt P11511)", "T2 sequence (P11511 1-503)": "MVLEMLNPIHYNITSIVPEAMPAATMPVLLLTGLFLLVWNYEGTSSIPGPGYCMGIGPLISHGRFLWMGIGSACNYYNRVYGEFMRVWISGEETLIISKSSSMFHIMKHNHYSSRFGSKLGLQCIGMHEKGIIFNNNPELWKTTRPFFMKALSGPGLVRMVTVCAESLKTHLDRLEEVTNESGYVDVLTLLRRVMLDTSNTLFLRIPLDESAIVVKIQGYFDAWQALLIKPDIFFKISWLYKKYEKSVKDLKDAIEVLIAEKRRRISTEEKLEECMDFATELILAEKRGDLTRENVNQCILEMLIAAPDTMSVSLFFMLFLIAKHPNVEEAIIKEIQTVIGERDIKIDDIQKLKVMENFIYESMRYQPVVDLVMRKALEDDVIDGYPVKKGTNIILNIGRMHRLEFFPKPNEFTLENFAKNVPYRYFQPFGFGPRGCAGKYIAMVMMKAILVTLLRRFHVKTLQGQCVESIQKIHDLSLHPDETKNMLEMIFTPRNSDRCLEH", "experiment": "In cell activity assay for CYP19A1 (dibenzylfluorescein conversion, HEK293 T-Rex cells)", "format": "cell-based", "details": "Dark; conversion of dibenzylfluorescein (DBF); read-out: IC50 CYP19A1 Dark", "method": "Thus, the activity against CYP19A1 was evaluated using a recently developed in-cell fluorometric assay.\nREE or DBF was added as described above."}, "CYP1B1 D333N": {"target": "T3, CYP1B1 D333N (Homo sapiens, UniProt Q16678, D333N)", "T3 sequence (Q16678 1-543 D333N)": "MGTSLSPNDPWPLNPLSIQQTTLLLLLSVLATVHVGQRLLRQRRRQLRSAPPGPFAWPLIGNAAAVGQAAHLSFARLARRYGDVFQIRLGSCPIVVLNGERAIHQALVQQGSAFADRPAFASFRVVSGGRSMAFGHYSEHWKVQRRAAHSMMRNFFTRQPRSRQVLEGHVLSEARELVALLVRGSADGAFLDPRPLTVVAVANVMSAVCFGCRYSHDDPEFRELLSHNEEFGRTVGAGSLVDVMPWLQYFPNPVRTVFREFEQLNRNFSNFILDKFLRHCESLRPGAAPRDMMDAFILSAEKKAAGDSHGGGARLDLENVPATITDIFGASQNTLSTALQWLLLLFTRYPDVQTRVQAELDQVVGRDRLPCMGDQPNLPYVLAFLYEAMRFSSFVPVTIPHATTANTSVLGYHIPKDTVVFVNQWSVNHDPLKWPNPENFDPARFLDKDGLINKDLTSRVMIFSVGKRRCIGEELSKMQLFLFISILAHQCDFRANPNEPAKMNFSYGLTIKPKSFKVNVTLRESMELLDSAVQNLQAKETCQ", "experiment": "In cell CYP1B1 activity assay, D333N variant", "details": "log of the ratio of IC50 values mutant vs WT (Fig. 3c)", "excerpt": "Site directed mutagenesis was used to probe the importance of specific active-site contacts identified through the structural assessment (Fig. 3a, b) and simulations. In all cases, conservative mutations were made to maintain polar or hydrophobic character and approximate size. The aromatic residues that frame the inhibitor binding site, Phe143 and Phe231, were mutated to Leu to determine the importance of the π interactions. In addition, the Ser127 residue, located in the upper corner of the active site on the B-C loop, was chosen for mutation based on the simulations. This amino acid transiently contacts the inhibitors, but also forms a hydrogen bond with Asp326 of the I-helix, and thus may impact the position of this helix with regards to the B-C loop. […] Rather than directly mutating these residues in the I-helix, neighboring residues Gln332 and Asp333 were targeted, with the hope of interrupting amino acid interactions that position the helix within the active site.\nThe ratio of IC50 values for the WT vs. the mutant are shown in Fig. 3c and reflects the importance of the specific contact; the log of the value is used to aid in visualization.\nCell lines were seeded onto Geltrex coated 96-well plates at 40,000 cells/well, and grown overnight in DMEM media containing 1 μg/mL tetracycline. The media was then replaced with Opti-MEM supplemented with 2% FBS and 1 μg/mL tetracycline. Compounds were serially diluted in Opti-MEM supplemented with 2% FBS and 1 μg/mL tetracycline and an equal volume of compound added to the cells (n = 3). Following a 1 h incubation, resorufin ethyl ether (REE; for CYP1B1 and 1A1) or dibenzylfluorescein (DBF; for 19A1) was added to the cells for a total concentration of 5 μM for REE and 1 μM for DBF. […] Dose–response curves were generated in Prism and normalized using the no-compound control (set as 100% activity) and the no-cell control (set as 0% activity; this value in the raw data reflects the background fluorescence of the dye alone)."}}, "note": "Values joined by “and” are separate entries in the source; they are usually repeats but may differ in a detail not shown here. Equal entries are not always repeated."}
{"smiles": "COc1ccc(C=Cc2ccncc2)c(OC)c1", "note": "[Compound 3]", "values": [{"measurement": "% Enzyme Activity", "setting": "CYP1A1; Log Conc 0.045757", "result": "84.2841% and 102.432% and 105%"}, {"measurement": "% Enzyme Activity", "setting": "CYP1A1; Log Conc 0.522879", "result": "59.4676% and 67.9492% and 76.5686%"}, {"measurement": "% Enzyme Activity", "setting": "CYP1A1; Log Conc 1", "result": "14.8056% and 20.3883% and 24.2847%"}, {"measurement": "% Enzyme Activity", "setting": "CYP1A1; Log Conc 1.47712", "result": "0.5263% and 0.2508% and 0.3665%"}, {"measurement": "% Enzyme Activity", "setting": "CYP1A1; Log Conc -0.43136", "result": "103.457% and 112.898% and 125.706%"}, {"measurement": "% Enzyme Activity", "setting": "CYP1A1; Log Conc -0.90849", "result": "103.209% and 120.806% and 117.825%"}, {"measurement": "% Enzyme Activity", "setting": "CYP1A1; Log Conc -1.38561", "result": "95.9953% and 108.125% and 129.481%"}, {"measurement": "% Enzyme Activity", "setting": "CYP1A1; Log Conc -1.86273", "result": "106.428% and 95.389% and 98.1832%"}, {"measurement": "viability at 72 h, 1.11 μM", "setting": "[1]; Log Conc 0.045757", "result": 96.6, "unit": "%"}, {"measurement": "viability at 72 h, 30 μM", "setting": "[1]; Log Conc 1.47712", "result": 140, "unit": "%"}, {"measurement": "viability at 72 h, 0.37 μM", "setting": "[1]; Log Conc -0.43136", "result": 92.3, "unit": "%"}, {"measurement": "viability at 72 h, 0.123 μM", "setting": "[1]; Log Conc -0.90849", "result": 93.3, "unit": "%"}, {"measurement": "viability at 72 h, 0.0412 μM", "setting": "[1]; Log Conc -1.38561", "result": 90.3, "unit": "%"}, {"measurement": "viability at 72 h, 0.0137 μM", "setting": "[1]; Log Conc -1.86273", "result": 103, "unit": "%"}, {"measurement": "% Viable", "setting": "HEK293 T-Rex cell line; Log Conc 0.045757", "result": "97.2552% and 97.1817%"}, {"measurement": "% Viable", "setting": "HEK293 T-Rex cell line; Log Conc 0.522879", "result": "116.518% and 106.568% and 128.158%"}, {"measurement": "% Viable", "setting": "HEK293 T-Rex cell line; Log Conc 1", "result": "141.882% and 148.217% and 166.23%"}, {"measurement": "% Viable", "setting": "HEK293 T-Rex cell line; Log Conc 1.47712", "result": "142.875% and 157.603%"}, {"measurement": "% Viable", "setting": "HEK293 T-Rex cell line; Log Conc -0.43136", "result": "103.982% and 85.443%"}, {"measurement": "% Viable", "setting": "HEK293 T-Rex cell line; Log Conc -0.90849", "result": "97.2307% and 93.9713%"}, {"measurement": "% Viable", "setting": "HEK293 T-Rex cell line; Log Conc -1.38561", "result": "97.0469% and 84.1196%"}, {"measurement": "% Viable", "setting": "HEK293 T-Rex cell line; Log Conc -1.86273", "result": "98.309% and 101.936%"}, {"measurement": "Remaining, % (NCF=60min)", "setting": "[2]; rat liver microsomes, no co-factor (no NADPH)", "result": 108.6, "unit": "%"}, {"measurement": "CLint scaled", "setting": "[2]; rat, liver microsomes", "result": 241, "unit": "mL/min/kg"}, {"measurement": "Remaining, % (T=60min)", "setting": "[2]; rat, liver microsomes", "result": 1.4, "unit": "%"}, {"measurement": "half-life", "setting": "[2]; rat, liver microsomes", "result": 10.4, "unit": "min"}, {"measurement": "microsomal CLint", "setting": "[2]; rat, liver microsomes", "result": 134, "unit": "µL/min/mg"}, {"measurement": "IC50", "setting": "CYP19A1", "result": 14.4, "unit": "µM"}, {"measurement": "logSI D333N", "setting": "CYP1B1 D333N", "result": 3.4}]}
